Source: patent publication US5049506A, “Proline-containing decapeptides as substrates for factor XIII” (Behringwerke Aktiengesellschaft, priority 1987, dated 1991)
Non-standard residues stand in square brackets, D forms with d. Residues, ends and D or L forms follow the SMILES beside them. Hyp = O=C(O)[C@@H]1C[C@@H](O)CN1

Molecular target: T1, factor XIII (Homo sapiens, UniProt P00488)
T1 sequence (P00488 39-732 limits assumed): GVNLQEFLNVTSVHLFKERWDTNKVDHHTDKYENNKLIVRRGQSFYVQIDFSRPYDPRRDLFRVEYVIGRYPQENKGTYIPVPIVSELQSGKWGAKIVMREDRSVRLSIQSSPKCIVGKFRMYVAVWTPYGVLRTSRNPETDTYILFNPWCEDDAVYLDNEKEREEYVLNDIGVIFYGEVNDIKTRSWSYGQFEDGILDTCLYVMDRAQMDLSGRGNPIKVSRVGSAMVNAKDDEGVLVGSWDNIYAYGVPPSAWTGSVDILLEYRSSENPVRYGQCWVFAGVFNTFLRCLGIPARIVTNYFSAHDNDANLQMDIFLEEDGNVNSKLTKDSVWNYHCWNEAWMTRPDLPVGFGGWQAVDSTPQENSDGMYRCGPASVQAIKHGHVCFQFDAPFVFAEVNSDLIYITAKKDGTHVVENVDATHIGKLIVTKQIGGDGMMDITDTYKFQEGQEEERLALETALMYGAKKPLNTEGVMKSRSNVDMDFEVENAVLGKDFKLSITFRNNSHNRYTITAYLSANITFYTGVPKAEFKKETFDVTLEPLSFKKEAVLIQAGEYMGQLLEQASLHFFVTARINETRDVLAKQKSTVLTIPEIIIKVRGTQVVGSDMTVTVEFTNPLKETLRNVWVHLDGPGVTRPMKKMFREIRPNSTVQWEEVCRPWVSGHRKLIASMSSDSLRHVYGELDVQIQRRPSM
Assay: Determination of factor XIII activity by photometric measurement (peptide as substrate, NADH/GLDH-coupled ammonia detection)
Type: biochemical
Conditions: decrease in extinction at 340 nm; factor XIII 0.6 U activated with thrombin at 37° C. for 10 min; 100 μl decapeptide amide solution (10 mg/ml in H2O); glycine ethyl ester
Procedure: To test the peptides for their suitability as substrates for the transglutaminase F XIII, a sample solution which contains factor XIII is activated in a buffer mixture which contains about 30mmol/1 calcium chloride at pH 7.6±0.5 with thrombin. The peptide solutions, a solution of an amine derivative, for example glycine ethyl ester or glycine methyl ester, ketoglutarate buffer, glutamic dehydrogenase and an NADH solution are then added. The liberation of ammonia from the decapeptide amide is then measured by means of the decrease in extinction at 340±15nm, and the activity of F XIII is determined.
50 μl of a solution containing factor XIII (0.6 U), which had been adjusted to pH 7.6 and which contained 50 millimolar HEPES, 150 milli molar sodium chloride and 30 millimolar CaC12, were incubated with 25 μl of thrombin solution (30 units dissolved in 1 ml physiological saline) in a 1 ml cuvette at 37° C. for 10 min. 700 μl of a buffer solution composed of triethanolamine pH 8.0, 2.2 g of alpha-ketoglutarate/liter and 133 mg of NADH/liter were added. The sample solution was then mixed with 25 μl of a solution of […] of glutamic dehydrogenase (about 120 units/mg), 100 ml of glycerol, pH 7, 100 μl of glycine ethyl ester (30 mg/ml in H2 O) and 100 μl of decapeptide amide solution (10 mg/ml in H2 O). The decrease in extinction was measured. The results of the kinetic measurement at 340 nm are to be found in the form of delta OD/min values in the following Tables.

Row | Delta OD/min [OD/min] | Structure (SMILES)
1 | 0.27 | CC(C)C[C@H](NC(=O)[C@@H](NC(=O)[C@H](CCCCN)NC(=O)[C@H](CO)NC(=O)[C@H](CCC(N)=O)NC(=O)CNC(=O)[C@@H]1C[C@@H](O)CN1C(=O)CNC(=O)[C@@H](N)CC(C)C)C(C)C)C(=O)NCC(N)=O [Leu--Gly--Hyp--Gly--Gln--Ser--Lys--Val--Leu--Gly--NH2] (H-LG[Hyp]GQSKVLG-NH2)
2 | 0.35 | CC[C@H](C)[C@H](NC(=O)[C@@H](NC(=O)[C@H](CCCCN)NC(=O)[C@H](CO)NC(=O)[C@H](CCC(N)=O)NC(=O)CNC(=O)[C@@H]1CCCN1C(=O)CNC(=O)[C@@H](N)CC(C)C)C(C)C)C(=O)NCC(N)=O [Leu--Gly--Pro--Gly--Gln--Ser--Lys--Val--Ile--Gly--NH2] (H-LGPGQSKVIG-NH2)
3 | 0.32 | CC(C)C[C@H](NC(=O)[C@@H](NC(=O)[C@H](CCCCN)NC(=O)[C@H](CO)NC(=O)[C@H](CCC(N)=O)NC(=O)CNC(=O)[C@@H]1CCCN1C(=O)CNC(=O)[C@@H](N)CC(C)C)C(C)C)C(=O)NCC(N)=O [Leu--Gly--Pro--Gly--Gln--Ser--Lys--Val--Leu--Gly--NH2] (H-LGPGQSKVLG-NH2)
